# Reference: US20190382432A1 (Synbias Pharma AG, priority 2013, published 2019)
# Where a name gives a salt, the structure may show the parent alone. Marks after values point to notes of the source that are not given here.
# Legend:
# Assay type in all cases: physicochemical
# [1] = Thermostability on storage at 25, 40 and 100 °C per ICH Q1A (R2), HPLC
# Procedure: HPLC and GC analyses were performed according to standard protocols.
# The testing was performed as described in the ICH guidelines (cf. inter alia ICH Guideline Q1A (R2)).
# [2] = Hygroscopic capacity: water content by Karl-Fischer titration after exposure to temperature and relative humidity; conditions: 25 or 40 °C, 40-90% rh; data not shown
# Procedure: Coulometric Karl-Fischer titration (KFT; for determining the water content) was performed with an external drying oven (Metrohm 707 KF; operated at 140° C. with N2 purge). The samples were precisely weighed on an analytical balance (10^−5 g).
# The testing was performed as described in the ICH guidelines.
# [3] = Particle size distribution by laser diffraction analysis (Mastersizer 2000); conditions: wet laser diffraction in acetone; listed as Sample 2, hydrochloride
# Procedure: Laser diffraction analysis was performed in form of wet laser diffraction in acetone: 1750 rpm, 3×20 s cycle time, 60 s background time, without sonication, and 5 min stirring time using a Mastersizer 2000 Particle Size Analyzer (Malvern Instruments Ltd., Malvern, UK) according to the manufacturer's instructions.
# [4] = Thermostability under stress conditions (storage at 100 °C for one month), HPLC
# Procedure: Sample S was prepared according to the present invention, as described in Example 3 above. Sample M1 was prepared according to Example 1 of WO 2012/163508 A1, as described in Example 7 above. Finally, Sample M2 was prepared according to Example 2 of WO 2012/163508 A1, as described in Example 7 above.
# The samples were exposed to a temperature of 100° C. for the time period (in weeks) indicated. The testing was performed as described in the ICH Guideline Q1A (R2) (cf. above). The amount of the degradation product (i.e. doxorubicinone) produced as well as those of various impurities (i.e., doxorubicin and four different impurities of yet unknown identity; all given in % (w/w); “n.d.”=not determined) was determined by HPCL analysis (“LT”=less than).
# [5] = 25 °C, 12 months, hydrochloride
# [6] = 25 °C, 24 months, hydrochloride
compound,measurement,setting,value
"COc1cccc2c1C(=O)c1c(O)c3c(c(O)c1C2=O)C[C@@](O)(C(=O)CO)C[C@@H]3O[C@H]1C[C@H](N)[C@H](O)[C@H](C)O1 [epirubicin hydrochloride trihydrate, epirubicin hydrochloride]",Doxorubicinone,"[1]; 25 °C, 0 months",LT 0.05 % (w/w)
same,Assay (intact epirubicin hydrochloride),"[1]; 25 °C, 0 months, hydrochloride",98.8 % (w/w)
same,Assay (intact epirubicin hydrochloride),"[1]; 25 °C, 1 month, hydrochloride",98.7 % (w/w)
same,Doxorubicinone,"[1]; 25 °C, 1 month, hydrochloride",0.06 % (w/w)
same,Assay (intact epirubicin hydrochloride),"[1]; 25 °C, 3 months, hydrochloride",98.7 % (w/w)
same,Doxorubicinone,"[1]; 25 °C, 3 months, hydrochloride",0.09 % (w/w)
same,Assay (intact epirubicin hydrochloride),"[1]; 25 °C, 6 months, hydrochloride",98.4 % (w/w)
same,Doxorubicinone,"[1]; 25 °C, 6 months, hydrochloride",0.22 % (w/w)
same,Assay (intact epirubicin hydrochloride),[1]; [5],98.5 % (w/w)
same,Doxorubicinone,[1]; [5],0.42 % (w/w)
same,Assay (intact epirubicin hydrochloride),[1]; [6],98.0 % (w/w)
same,Doxorubicinone,[1]; [6],0.62 % (w/w)
same,Doxorubicinone,"[1]; 40 °C, 0 months",LT 0.05 % (w/w)
same,Assay (intact epirubicin hydrochloride),"[1]; 40 °C, 0 months, hydrochloride",98.8 % (w/w)
same,Assay (intact epirubicin hydrochloride),"[1]; 40 °C, 1 month, hydrochloride",98.4 % (w/w)
same,Doxorubicinone,"[1]; 40 °C, 1 month, hydrochloride",0.22 % (w/w)
same,Assay (intact epirubicin hydrochloride),"[1]; 40 °C, 3 months, hydrochloride",98.2 % (w/w)
same,Doxorubicinone,"[1]; 40 °C, 3 months, hydrochloride",0.45 % (w/w)
same,Assay (intact epirubicin hydrochloride),"[1]; 40 °C, 6 months, hydrochloride",98.0 % (w/w)
same,Doxorubicinone,"[1]; 40 °C, 6 months, hydrochloride",0.78* % (w/w)
same,Doxorubicinone,"[1]; 100 °C, 0 months",LT 0.05 % (w/w)
same,Assay (intact epirubicin hydrochloride),"[1]; 100 °C, 0 months, hydrochloride",98.8 % (w/w)
same,Assay (intact epirubicin hydrochloride),"[1]; 100 °C, 1 month, hydrochloride",89.5 % (w/w)
same,Doxorubicinone,"[1]; 100 °C, 1 month, hydrochloride",4.7** % (w/w)
same,"Degradation on storage, in words",[1]; within six months storage at 25 °C,significant degradation
"COc1cccc2c1C(=O)c1c(O)c3c(c(O)c1C2=O)C[C@@](O)(C(=O)CO)C[C@@H]3O[C@H]1C[C@H](N)[C@H](O)[C@H](C)O1 [Example 2, epirubicin hydrochloride]","Hygroscopic capacity compared with the Example 1 monohydrate (TABLE 6-1), in words",[2],almost identical results
same,"Thermostability compared with the Example 1 monohydrate (TABLE 5-1), in words","[1]; 25, 40, 100 °C, data not shown",almost identical results
"COc1cccc2c1C(=O)c1c(O)c3c(c(O)c1C2=O)C[C@@](O)(C(=O)CO)C[C@@H]3O[C@H]1C[C@H](N)[C@H](O)[C@H](C)O1 [Example M2, epirubicin hydrochloride]","D(v/0.5), mean diameter based on the volume of the particles",[3],9.04 μm
same,Doxorubicin (NMT 1%),[4]; 0 weeks,0.29 % (w/w)
same,Doxorubicinone (Aglycone) (NMT 1%),[4]; 0 weeks,< 0.05 % (w/w)
same,Total Impurities (NMT 2%),[4]; 0 weeks,0.30 % (w/w)
same,Doxorubicin (NMT 1%),"[4]; 1 week, hydrochloride",0.27 % (w/w)
same,Doxorubicinone (Aglycone) (NMT 1%),"[4]; 1 week, hydrochloride",0.54 % (w/w)
same,Total Impurities (NMT 2%),"[4]; 1 week, hydrochloride",1.30 % (w/w)
same,Unknown impurity RRT 1.2 (NMT 0.15%),"[4]; 1 week, hydrochloride",0.12 % (w/w)
same,Unknown impurity RRT 1.6 (NMT 0.15%),"[4]; 1 week, hydrochloride",0.12 % (w/w)
same,Unknown impurity RRT 1.7 (NMT 0.15%),"[4]; 1 week, hydrochloride",0.14 % (w/w)
same,Doxorubicin (NMT 1%),[4]; 2 weeks,0.32 % (w/w)
same,Doxorubicinone (Aglycone) (NMT 1%),"[4]; 2 weeks, hydrochloride",0.59 % (w/w)
same,Total Impurities (NMT 2%),"[4]; 2 weeks, hydrochloride",1.70 % (w/w)
same,Unknown impurity RRT 1.1 (NMT 0.15%),"[4]; 2 weeks, hydrochloride",0.14 % (w/w)
same,Unknown impurity RRT 1.2 (NMT 0.15%),"[4]; 2 weeks, hydrochloride",0.12 % (w/w)
same,Unknown impurity RRT 1.6 (NMT 0.15%),"[4]; 2 weeks, hydrochloride",0.21 % (w/w)
same,Unknown impurity RRT 1.7 (NMT 0.15%),"[4]; 2 weeks, hydrochloride",0.18 % (w/w)
same,Doxorubicin (NMT 1%),"[4]; 3 weeks, hydrochloride",0.32 % (w/w)
same,Doxorubicinone (Aglycone) (NMT 1%),"[4]; 3 weeks, hydrochloride",0.61 % (w/w)
same,Total Impurities (NMT 2%),"[4]; 3 weeks, hydrochloride",1.80 % (w/w)
same,Unknown impurity RRT 1.1 (NMT 0.15%),"[4]; 3 weeks, hydrochloride",0.13 % (w/w)
same,Unknown impurity RRT 1.2 (NMT 0.15%),"[4]; 3 weeks, hydrochloride",0.13 % (w/w)
same,Unknown impurity RRT 1.6 (NMT 0.15%),"[4]; 3 weeks, hydrochloride",0.27 % (w/w)
same,Unknown impurity RRT 1.7 (NMT 0.15%),"[4]; 3 weeks, hydrochloride",0.22 % (w/w)
same,Doxorubicin (NMT 1%),[4]; 4 weeks,0.33 % (w/w)
same,Doxorubicinone (Aglycone) (NMT 1%),"[4]; 4 weeks, hydrochloride",0.60 % (w/w)
same,Total Impurities (NMT 2%),"[4]; 4 weeks, hydrochloride",2.1* % (w/w)
same,Total amount of unknown impurities,"[4]; 4 weeks, hydrochloride",1.1 % (w/w)
same,Unknown impurity RRT 1.1 (NMT 0.15%),"[4]; 4 weeks, hydrochloride",0.21 % (w/w)
same,Unknown impurity RRT 1.2 (NMT 0.15%),"[4]; 4 weeks, hydrochloride",0.16 % (w/w)
same,Unknown impurity RRT 1.6 (NMT 0.15%),"[4]; 4 weeks, hydrochloride",0.39 % (w/w)
same,Unknown impurity RRT 1.7 (NMT 0.15%),"[4]; 4 weeks, hydrochloride",0.26 % (w/w)
